system: southern armyworm (Spodopetra eridania Cramer); assay: Mite/insect screen, Southern armyworm; format: in vivo; conditions: Spodoptera eridania; rate 200 ppm, sprayed leaves; read-out: SAW results (percent mortality)
In short: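 Southern armyworm larvae placed in Petri dishes with two excised squash leaves that had been sprayed to runoff (10 psi) with emulsified compound and air-dried for 1 h. Mortality in percent recorded after a standard exposure period; formulation acetone/alcohol plus Toximul R and S, water-diluted.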

SMILES | mortality at 200 ppm [%]
Cc1oc2ncnc(OCCc3cccs3)c2c1C [Example 61, 5,6-dimethyl-4-[2-(2-thienyl)ethoxy]furo[2,3-d]pyrimidine] | 0

same assay, conditions: Spodoptera eridania; rate 400 ppm, sprayed leaves; read-out: SAW results (percent mortality)

SMILES | mortality at 400 ppm [%]
Cc1coc2ncn(CCc3ccc4ccccc4c3)c(=N)c12 [Example 79, 5-methyl-3-[2-(2-naphthyl)ethyl]furo[2,3-d]pyrimidin-4(3H)-imine] | 0
Cc1oc2ncnc(OCCc3ccc4c(c3)OC(F)(F)O4)c2c1C [Example 70] | 0
Cc1oc2ncnc(OCCc3ccc(OC(F)(F)F)cc3)c2c1C [Example 69, 5,6-dimethyl-4-[2-[4-(trifluoromethoxy)phenyl]ethoxy]furo[2,3-d]pyrimidine] | 0
Cc1oc2ncnc(OCCc3cccs3)c2c1C [Example 61, 5,6-dimethyl-4-[2-(2-thienyl)ethoxy]furo[2,3-d]pyrimidine] | 0

system: Erysiphe graminis tritici (powdery mildew); assay: Plant pathology screen (Test 1), powdery mildew on wheat; conditions: Blumeria graminis, in Triticum aestivum, foliar, read-out: POWD MDEW control rating

SMILES | pest or weed control at 400 µg/mL [%]
Cc1coc2ncn(CCc3ccc4ccccc4c3)c(=N)c12 [Example 79, 5-methyl-3-[2-(2-naphthyl)ethyl]furo[2,3-d]pyrimidin-4(3H)-imine] | 0 to 19
Cc1oc2ncnc(OCCc3ccc4c(c3)OC(F)(F)O4)c2c1C [Example 70] | 0 to 19
Cc1oc2ncnc(OCCc3ccc(OC(F)(F)F)cc3)c2c1C [Example 69, 5,6-dimethyl-4-[2-[4-(trifluoromethoxy)phenyl]ethoxy]furo[2,3-d]pyrimidine] | 90 to 100
Cc1oc2ncnc(OCCc3cccs3)c2c1C [Example 61, 5,6-dimethyl-4-[2-(2-thienyl)ethoxy]furo[2,3-d]pyrimidine] | 90 to 100

system: melon aphids (Aphis gossvpii Glover); assay: Mite/insect screen, melon aphids; format: in vivo; conditions: Aphis; rate 200 ppm, sprayed leaves; read-out: MA results (percent mortality)
In short: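 Percent mortality of melon aphids was assessed after standard exposure periods. Infested squash cotyledons had been sprayed on both leaf surfaces until runoff at 10 psi with water-diluted test solutions. Compounds were formulated in acetone/alcohol (50:50) containing emulsifiers.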

SMILES | mortality at 200 ppm [%]
Cc1oc2ncnc(OCCc3cccs3)c2c1C [Example 61, 5,6-dimethyl-4-[2-(2-thienyl)ethoxy]furo[2,3-d]pyrimidine] | 90

same assay, conditions: Aphis; rate 400 ppm, sprayed leaves; read-out: MA results (percent mortality)

SMILES | mortality at 400 ppm [%]
Cc1coc2ncn(CCc3ccc4ccccc4c3)c(=N)c12 [Example 79, 5-methyl-3-[2-(2-naphthyl)ethyl]furo[2,3-d]pyrimidin-4(3H)-imine] | 0
Cc1oc2ncnc(OCCc3ccc4c(c3)OC(F)(F)O4)c2c1C [Example 70] | 0
Cc1oc2ncnc(OCCc3ccc(OC(F)(F)F)cc3)c2c1C [Example 69, 5,6-dimethyl-4-[2-[4-(trifluoromethoxy)phenyl]ethoxy]furo[2,3-d]pyrimidine] | 90
Cc1oc2ncnc(OCCc3cccs3)c2c1C [Example 61, 5,6-dimethyl-4-[2-(2-thienyl)ethoxy]furo[2,3-d]pyrimidine] | 0

system: Puccinia recondita tritici (leaf rust); assay: Plant pathology screen (Test 1), leaf rust on wheat; conditions: in Triticum aestivum, foliar, read-out: LEAF RUST control rating

SMILES | pest or weed control at 400 µg/mL [%]
Cc1coc2ncn(CCc3ccc4ccccc4c3)c(=N)c12 [Example 79, 5-methyl-3-[2-(2-naphthyl)ethyl]furo[2,3-d]pyrimidin-4(3H)-imine] | 20 to 89
Cc1oc2ncnc(OCCc3ccc4c(c3)OC(F)(F)O4)c2c1C [Example 70] | 0 to 19
Cc1oc2ncnc(OCCc3ccc(OC(F)(F)F)cc3)c2c1C [Example 69, 5,6-dimethyl-4-[2-[4-(trifluoromethoxy)phenyl]ethoxy]furo[2,3-d]pyrimidine] | 20 to 89
Cc1oc2ncnc(OCCc3cccs3)c2c1C [Example 61, 5,6-dimethyl-4-[2-(2-thienyl)ethoxy]furo[2,3-d]pyrimidine] | 20 to 89

system: Botrytis cinerea (gray mold); assay: Plant pathology screen (Test 1), gray mold on grape berries; conditions: read-out: GRAY MOLD control rating

SMILES | pest or weed control at 400 µg/mL [%]
Cc1coc2ncn(CCc3ccc4ccccc4c3)c(=N)c12 [Example 79, 5-methyl-3-[2-(2-naphthyl)ethyl]furo[2,3-d]pyrimidin-4(3H)-imine] | 0 to 19
Cc1oc2ncnc(OCCc3ccc4c(c3)OC(F)(F)O4)c2c1C [Example 70] | 0 to 19
Cc1oc2ncnc(OCCc3ccc(OC(F)(F)F)cc3)c2c1C [Example 69, 5,6-dimethyl-4-[2-[4-(trifluoromethoxy)phenyl]ethoxy]furo[2,3-d]pyrimidine] | 0 to 19
Cc1oc2ncnc(OCCc3cccs3)c2c1C [Example 61, 5,6-dimethyl-4-[2-(2-thienyl)ethoxy]furo[2,3-d]pyrimidine] | 0 to 19

system: Pseudoperonospora cubensis (downy mildew); assay: Plant pathology screen (Test 1), downy mildew on squash; conditions: foliar, read-out: DOWN MDEW control rating

SMILES | pest or weed control at 400 µg/mL [%]
Cc1coc2ncn(CCc3ccc4ccccc4c3)c(=N)c12 [Example 79, 5-methyl-3-[2-(2-naphthyl)ethyl]furo[2,3-d]pyrimidin-4(3H)-imine] | 90 to 100
Cc1oc2ncnc(OCCc3ccc4c(c3)OC(F)(F)O4)c2c1C [Example 70] | 0 to 19
Cc1oc2ncnc(OCCc3ccc(OC(F)(F)F)cc3)c2c1C [Example 69, 5,6-dimethyl-4-[2-[4-(trifluoromethoxy)phenyl]ethoxy]furo[2,3-d]pyrimidine] | 0 to 19
Cc1oc2ncnc(OCCc3cccs3)c2c1C [Example 61, 5,6-dimethyl-4-[2-(2-thienyl)ethoxy]furo[2,3-d]pyrimidine] | 90 to 100

system: Southern corn rootworm (Diabrotica undecimpuctata howardi Barber); assay: Mite/insect screen, corn rootworm; format: in vivo; conditions: Diabrotica; CRW rate 12.00 ppm, soil; read-out: CRW results (percent mortality)
In short: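 Five 2-3 instar larvae per cup were placed on sandy soil (15 g, with presoaked corn seed) treated 6–12 h earlier with 1 mL test solution, an emulsified acetone/alcohol formulation diluted in water. Cups kept at 23° C; mortality and phytotoxicity assessed as percent after standard exposures.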

SMILES | mortality at 12 ppm [%]
Cc1oc2ncnc(OCCc3cccs3)c2c1C [Example 61, 5,6-dimethyl-4-[2-(2-thienyl)ethoxy]furo[2,3-d]pyrimidine] | 0

same assay, conditions: Diabrotica; CRW rate 24.00 ppm, soil; read-out: CRW results (percent mortality)

SMILES | mortality at 24 ppm [%]
Cc1coc2ncn(CCc3ccc4ccccc4c3)c(=N)c12 [Example 79, 5-methyl-3-[2-(2-naphthyl)ethyl]furo[2,3-d]pyrimidin-4(3H)-imine] | 0
Cc1oc2ncnc(OCCc3ccc4c(c3)OC(F)(F)O4)c2c1C [Example 70] | 0
Cc1oc2ncnc(OCCc3ccc(OC(F)(F)F)cc3)c2c1C [Example 69, 5,6-dimethyl-4-[2-[4-(trifluoromethoxy)phenyl]ethoxy]furo[2,3-d]pyrimidine] | 0
Cc1oc2ncnc(OCCc3cccs3)c2c1C [Example 61, 5,6-dimethyl-4-[2-(2-thienyl)ethoxy]furo[2,3-d]pyrimidine] | 0

system: Pyricularia oryzae (rice blast); assay: whole plant or invertebrate; format: in vivo; conditions: foliar, read-out: RICE BLAST control rating

SMILES | pest or weed control at 400 µg/mL [%]
Cc1coc2ncn(CCc3ccc4ccccc4c3)c(=N)c12 [Example 79, 5-methyl-3-[2-(2-naphthyl)ethyl]furo[2,3-d]pyrimidin-4(3H)-imine] | 20 to 89
Cc1oc2ncnc(OCCc3ccc4c(c3)OC(F)(F)O4)c2c1C [Example 70] | 0 to 19
Cc1oc2ncnc(OCCc3ccc(OC(F)(F)F)cc3)c2c1C [Example 69, 5,6-dimethyl-4-[2-[4-(trifluoromethoxy)phenyl]ethoxy]furo[2,3-d]pyrimidine] | 20 to 89
Cc1oc2ncnc(OCCc3cccs3)c2c1C [Example 61, 5,6-dimethyl-4-[2-(2-thienyl)ethoxy]furo[2,3-d]pyrimidine] | 20 to 89

system: Twospotted spider mites (Tetranychus urticae Koch); assay: Mite/insect screen, twospotted spider mites; format: in vivo; conditions: Tetranychus urticae, rate 200 ppm, sprayed leaves; read-out: SM results (percent mortality)
In short: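 Percent mortality, along with phytotoxicity, was read after standard exposure periods. Beforehand, mites established on both surfaces of squash cotyledons received a runoff spray (10 psi) of water-diluted compound formulated in acetone/alcohol with sulfonate/nonionic emulsifiers.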

SMILES | mortality at 200 ppm [%]
Cc1oc2ncnc(OCCc3cccs3)c2c1C [Example 61, 5,6-dimethyl-4-[2-(2-thienyl)ethoxy]furo[2,3-d]pyrimidine] | 90

same assay, conditions: Tetranychus urticae, rate 400 ppm, sprayed leaves; read-out: SM results (percent mortality)

SMILES | mortality at 400 ppm [%]
Cc1coc2ncn(CCc3ccc4ccccc4c3)c(=N)c12 [Example 79, 5-methyl-3-[2-(2-naphthyl)ethyl]furo[2,3-d]pyrimidin-4(3H)-imine] | 0
Cc1oc2ncnc(OCCc3ccc4c(c3)OC(F)(F)O4)c2c1C [Example 70] | 0
Cc1oc2ncnc(OCCc3ccc(OC(F)(F)F)cc3)c2c1C [Example 69, 5,6-dimethyl-4-[2-[4-(trifluoromethoxy)phenyl]ethoxy]furo[2,3-d]pyrimidine] | 90
Cc1oc2ncnc(OCCc3cccs3)c2c1C [Example 61, 5,6-dimethyl-4-[2-(2-thienyl)ethoxy]furo[2,3-d]pyrimidine] | 0

Source: patent US5486516A, “Furopyrimidine derivatives” (DowElanco, priority 1993, dated 1996)
